# Test results taken from US9044426B2, “Antimicrobial peptides for treatment of infectious diseases” (Dr. Roland Berecz, priority 2011, dated 2015).
# Where no end group is shown, it is not given here.
# System: luminescent bacteria
# Test: Luminescence screen of SPOT-synthesized peptides on luminescent bacteria, with recovery check
# Format: cell-based
# Settings: 0.1 M Tris buffer pH 7.4, 20 mM glucose, luminescence after 4 hours, recovery inspected after 18 h
# Description: The peptides are synthesized using standard Fmoc-strategy on cellulose with the SPOT technology; they are positively charged peptides, which were then cleaved from the cellulose and solubilized in water. Peptides were transferred into wells containing luminescent bacteria, in 0.1 M Tris buffer (pH 7.4), containing 20 mM glucose. After 4 hours of incubation time, the luminescence was measured using a microtiter plate reader. Consequently, 50 μl of Mueller-Hinton media was added in order to check for recovery of the bacteria. The plates were manually inspected after 18 h of incubation time.
row,Sequence,antimicrobial activity
1,"LRRWIRIRW (also: cellulose-bound) [LRRWIRIRW (SEQ ID NO.:21), peptide synthesized on cellulose with the SPOT technology]",showed antimicrobial activity
2,"KRKKRFKWW (also: cellulose-bound) [KRKKRFKWW (SEQ ID NO.:29), peptide synthesized on cellulose with the SPOT technology]",showed antimicrobial activity
3,"RKFRWWVIR (also: cellulose-bound) [RKFRWWVIR (SEQ ID NO.:22), peptide synthesized on cellulose with the SPOT technology]",showed antimicrobial activity
4,"RLKRWWKFL (also: cellulose-bound) [RLKRWWKFL (SEQ ID NO.:7), peptide synthesized on cellulose with the SPOT technology]",showed antimicrobial activity
5,"WKWRVRVTI (also: cellulose-bound) [WKWRVRVTI (SEQ ID NO.:27), peptide synthesized on cellulose with the SPOT technology]",showed antimicrobial activity
6,"RIRRWKFRW (also: cellulose-bound) [RIRRWKFRW (SEQ ID NO.:6), peptide synthesized on cellulose with the SPOT technology]",showed antimicrobial activity
7,"RRRWWKLMM (also: cellulose-bound) [RRRWWKLMM (SEQ ID NO.:20), peptide synthesized on cellulose with the SPOT technology]",showed antimicrobial activity
8,"RTKKWIVWI (also: cellulose-bound) [RTKKWIVWI (SEQ ID NO.:28), peptide synthesized on cellulose with the SPOT technology]",showed antimicrobial activity
9,"KRRWRIWLV (also: cellulose-bound) [KRRWRIWLV (SEQ ID NO.:15), peptide synthesized on cellulose with the SPOT technology]",showed antimicrobial activity
10,"KFKWWRMLI (also: cellulose-bound) [KFKWWRMLI (SEQ ID NO.:10), peptide synthesized on cellulose with the SPOT technology]",showed antimicrobial activity
11,"YRLRVKWKW (also: cellulose-bound) [YRLRVKWKW (SEQ ID NO.:26), peptide synthesized on cellulose with the SPOT technology]",showed antimicrobial activity
